The values that follow come from patent US12049467B2 (The Johns Hopkins University, priority 2021, dated 2024).

The Emax is the size of the effect at its maximum, as opposed to the concentration needed.

The structures appear in SMILES notation.

T1 sequence (P34903 29-492): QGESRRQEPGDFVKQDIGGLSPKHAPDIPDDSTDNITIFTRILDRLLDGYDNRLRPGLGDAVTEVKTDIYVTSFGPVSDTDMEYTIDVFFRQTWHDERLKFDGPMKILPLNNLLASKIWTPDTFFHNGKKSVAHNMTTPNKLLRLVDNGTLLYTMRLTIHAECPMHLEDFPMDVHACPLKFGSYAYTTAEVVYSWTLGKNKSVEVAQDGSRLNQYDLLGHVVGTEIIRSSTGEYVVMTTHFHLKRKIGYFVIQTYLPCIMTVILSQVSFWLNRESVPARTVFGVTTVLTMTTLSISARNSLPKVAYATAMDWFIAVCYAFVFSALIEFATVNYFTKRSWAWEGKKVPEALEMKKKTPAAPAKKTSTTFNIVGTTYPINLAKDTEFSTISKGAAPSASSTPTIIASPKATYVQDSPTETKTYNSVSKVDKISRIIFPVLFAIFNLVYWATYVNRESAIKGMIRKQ
T1 sequence (P47870 25-512 partner limits assumed): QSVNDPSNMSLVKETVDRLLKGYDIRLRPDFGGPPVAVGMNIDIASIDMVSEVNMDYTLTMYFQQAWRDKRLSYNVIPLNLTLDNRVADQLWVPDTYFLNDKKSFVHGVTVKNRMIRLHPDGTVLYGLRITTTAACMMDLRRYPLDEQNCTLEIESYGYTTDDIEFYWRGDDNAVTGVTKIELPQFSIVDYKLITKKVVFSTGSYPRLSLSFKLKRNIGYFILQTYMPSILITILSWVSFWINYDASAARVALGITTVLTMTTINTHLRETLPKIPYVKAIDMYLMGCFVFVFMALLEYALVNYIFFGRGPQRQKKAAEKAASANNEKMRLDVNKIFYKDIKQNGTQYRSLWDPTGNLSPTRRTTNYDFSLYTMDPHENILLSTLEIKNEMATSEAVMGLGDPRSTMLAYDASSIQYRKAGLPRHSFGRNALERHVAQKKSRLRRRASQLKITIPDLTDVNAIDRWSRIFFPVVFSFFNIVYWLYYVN
T1 sequence (P18507 40-475): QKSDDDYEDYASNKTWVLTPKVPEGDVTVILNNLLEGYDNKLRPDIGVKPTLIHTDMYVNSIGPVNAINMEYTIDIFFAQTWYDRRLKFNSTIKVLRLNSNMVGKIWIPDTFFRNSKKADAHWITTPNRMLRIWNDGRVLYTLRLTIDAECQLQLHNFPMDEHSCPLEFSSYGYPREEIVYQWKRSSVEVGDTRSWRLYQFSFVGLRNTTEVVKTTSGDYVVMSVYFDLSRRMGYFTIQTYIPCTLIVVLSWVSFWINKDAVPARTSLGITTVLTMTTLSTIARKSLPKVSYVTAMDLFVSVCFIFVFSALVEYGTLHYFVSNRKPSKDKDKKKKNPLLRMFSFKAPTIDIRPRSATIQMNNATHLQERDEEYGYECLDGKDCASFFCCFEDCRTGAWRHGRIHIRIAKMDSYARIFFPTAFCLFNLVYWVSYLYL

The experiment concerns the target T1, GABAA (α3β2γ2) subtype (Homo sapiens, UniProt P18507+P34903).
T1 construct: expressed in transfected cells
The experiment is described as follows: Automated patch-clamp (QPatch) modulation of GABA-activated currents in cells stably transfected with GABAA (α3β2γ2) channels. It is filed as cell-based. As to conditions: stably transfected Ltk cells, 2.0 μM GABA (submaximal), whole-cell patch, holding potential −80 mV; Emax = upper asymptote of dose-response fit. The protocol:
Modulatory effects of the compounds of this disclosure were investigated using cells stably transfected with GABA-activated channels of the GABAA (α3β2γ2) subtype together with submaximal GABA concentrations. Expression of GABA receptor were induced by adding Dexamethasone to the cells for 24 to 48 h before experimentation. In general, cells were passaged at a confluence of about 80 to 90%. For electrophysiological measurements cells were harvested at a confluence of about 80 to 90% from sterile culture flasks containing culture complete medium. Cells were transferred as suspension in PBS to the QPatch 16X or QPatch HTX system to the centrifuge/washer directly. Cells were incubated at 37° C. in a humidified atmosphere with 5% CO2 (rel. humidity about 95%). The cells were continuously maintained in and passaged in sterile culture flasks containing a 1:1 mixture of Dulbecco's modified eagle medium and nutrient mixture D-MEM/F-12 (1×, liquid, with L-Glutamine), supplemented with 10% foetal bovine serum and 1.0% Penicillin/Streptomycin solution and neomycin. The 1× bath solution was made at least every 5 days out of a sterile lox bath solution, which had been prepared prior to the experimental start of the present study and stored at 1° C. to 9° C. The final bath solution included Sodium Chloride 137 mM, Potassium Chloride 4 mM, Calcium Chloride 1.8 mM, Magnesium Chloride 1 mM, HEPES 10 mM, D-Glucose 10 mM, pH (NaOH) 7.4. The 1× intracellular solution was thawed every day and includes Potassium Chloride 130 mM, Magnesium Chloride 1 mM, Mg-ATP 5 mM, HEPES 10 mM, EGTA 5 Mm, pH (KOH) 7.2. Automated patch-clamping: Cells were transferred as suspension in serum-free medium to the QPatch HTX system and kept in the cell storage tank during experiments. All solutions applied to cells including the intracellular solution were maintained at room temperature (19° C. to 30° C.). After formation of a Gigaohm seal between the patch electrodes and transfected individual Ltk cells were ruptured to assure electrical access to the cell interior (whole-cell patch-configuration). Inward currents were measured upon application of 2.0 μM GABA to patch-clamped cells for 4 s. During the entire experiment the cells were voltage-clamped at a holding potential of −80 mV. For the analysis of test items, GABAA receptors were stimulated by 2.0 μM GABA and test item combinations described below. Thirty-second prewash steps with test items was performed in between two agonist applications. The dose-response curve was fit with a sigmoidal three parameter equation current=Emax/1+10^((Log EC50−X)*H) where X is the compound concentration, Emax the upper asymptote, EC50 the concentration of test item at half maximal effect, and H is the Hill coefficient. SigmaPlot 11.0 was used for construction of curve.
(In general: Patch clamp records ionic current or voltage across a cell membrane.)
Turning to `O=C(O)c1cc2n(n1)-c1cc(Cl)ccc1C(c1ccccc1F)=NC2` [Example 12], the Emax was less than 50%.

Consider `Cc1ccc2c(c1)C(c1ccccc1F)=NCc1cc(C(=O)O)nn1-2` [Example 4, 6-(2-fluorophenyl)-8-methyl-4H-pyrazolo[1,5-a][1,4]benzodiazepine-2-carboxylic acid], for which the Emax is greater than 100%.

Take `O=C(O)c1cc2n(n1)-c1ccccc1C(c1ccccc1F)=NC2` [Example 5, 6-(2-fluorophenyl)-4H-pyrazolo[1,5-a][1,4]benzodiazepine-2-carboxylic acid]: the Emax is less than 50%.

With `O=C(O)c1cnn2c1CN=C(c1ccccc1F)c1cc(Cl)ccc1-2` [Example 17, 12-Chloro-9-(2-fluorophenyl)-2,3,8-triazatricyclo[8.4.0.0^2,6]tetradeca-1(10),3,5,8,11,13-hexaene-5-carboxylic Acid], the Emax is greater than 100%.

As to `NS(=O)(=O)NCCNC(=O)c1cnn2c1CN=C(c1ccccc1F)c1cc(Cl)ccc1-2` [Example 28, 8-chloro-6-(2-fluorophenyl)-N-[2-(sulfamoylamino)ethyl]-4H-pyrazolo[1,5-a][1,4]benzodiazepine-3-carboxamide], the Emax is greater than 100%.

`O=C(O)c1cc2n(n1)-c1ccc(Cl)cc1C(c1c(F)cccc1F)=NC2` [Example 14, 8-chloro-6-(2,6-difluorophenyl)-4H-pyrazolo[1,5-a][1,4]benzodiazepine-2-carboxylic acid]: the Emax was 51 to 100%.

As for `NS(=O)(=O)NCCNC(=O)c1cc2n(n1)-c1ccc(Cl)cc1C(c1ccccc1F)=NC2` [Example 27, 8-chloro-6-(2-fluorophenyl)-N-[2-(sulfamoylamino)ethyl]-4H-pyrazolo[1,5-a][1,4]benzodiazepine-2-carboxamide], the Emax was in the range of 51 to 100%.

On to `Cc1ccc2c(c1)C(c1ccccc1F)=NCc1c(C(=O)O)cnn1-2` [Example 18, 6-(2-fluorophenyl)-8-methyl-4H-pyrazolo[1,5-a][1,4]benzodiazepine-3-carboxylic acid], for which the Emax is greater than 100%.

`O=C(O)c1cc2n(n1)-c1ccc(Cl)cc1C(c1ccccc1F)=NC2` [Example 1, 8-chloro-6-(2-fluorophenyl)-4H-pyrazolo[1,5-a][1,4]benzodiazepine-2-carboxylic acid]: the Emax is greater than 100%.

For `O=C(O)c1cc2n(n1)-c1ccc(-c3ccccc3)cc1C(c1ccccc1F)=NC2` [Example 6, 6-(2-fluorophenyl)-8-phenyl-4H-pyrazolo[1,5-a][1,4]benzodiazepine-2-carboxylic acid], the Emax was less than 50%.

`NC(=O)NCCNC(=O)c1cc2n(n1)-c1ccc(Cl)cc1C(c1ccccc1F)=NC2` [Example 25, 8-chloro-6-(2-fluorophenyl)-N-(2-ureidoethyl)-4H-benzo[f]pyrazolo[1,5-a][1,4]diazepine-2-carboxamide]: the Emax lay in the range of 51 to 100%.

Regarding `CC1N=C(c2ccccc2F)c2cc(Cl)ccc2-n2nc(C(=O)O)cc21` (centres unmarked) [Example 20, 12-Chloro-9-(2-fluorophenyl)-7-methyl-2,3,8-triazatricyclo[8.4.0.0^2,6]tetradeca-1(10),3,5,8,11,13-hexaene-4-carboxylic acid], the Emax was greater than 100%.

Turning to `O=C(O)c1cc2n(n1)-c1ccc(C(F)(F)F)cc1C(c1ccccc1F)=NC2` [Example 10, 6-(2-fluorophenyl)-8-(trifluoromethyl)-4H-pyrazolo[1,5-a][1,4]benzodiazepine-2-carboxylic acid], the Emax was greater than 100%.

In the case of `O=C(O)c1cc2n(n1)-c1ccc(Cl)cc1C(c1cccc(F)c1F)=NC2` [Example 16], the Emax is greater than 100%.

Take `O=C(O)c1cc2n(n1)-c1ccc(Cl)cc1C(c1ccccc1Cl)=NC2` [Example 15, 8-chloro-6-(2-chlorophenyl)-4H-pyrazolo[1,5-a][1,4]benzodiazepine-2-carboxylic acid]: the maximal response (Emax) was greater than 100%.

For `O=C(O)c1cc2n(n1)-c1ccc(Cl)cc1C(c1ccccc1F)=[N+]([O-])C2` [Example 23, 8-chloro-6-(2-fluorophenyl)-5-oxido-4H-pyrazolo[1,5-a][1,4]benzodiazepin-5-ium-2-carboxylic Acid], the Emax is greater than 100%.

For the molecule `O=C(O)c1cc2n(n1)-c1ccc(OC(F)(F)F)cc1C(c1ccccc1F)=NC2` [Example 11, 6-(2-fluorophenyl)-8-(trifluoromethoxy)-4H-pyrazolo[1,5-a][1,4]benzodiazepine-2-carboxylic acid], the Emax is greater than 100%.

As to `O=C(O)c1cc2n(n1)-c1ccc(Br)cc1C(c1ccccc1F)=NC2` [Example 7, 8-bromo-6-(2-fluorophenyl)-4H-pyrazolo[1,5-a][1,4]benzodiazepine-2-carboxylic acid], the Emax was greater than 100%.

As for `O=C(O)c1cc2n(n1)-c1ccc(SC(F)(F)F)cc1C(c1ccccc1F)=NC2` [Example 9, 6-(2-fluorophenyl)-8-(trifluoromethylsulfanyl)-4H-pyrazolo[1,5-a][1,4]benzodiazepine-2-carboxylic acid], the Emax was greater than 100%.

Take `NC(=O)NCCNC(=O)c1cnn2c1CN=C(c1ccccc1F)c1cc(Cl)ccc1-2` [Example 26, 8-chloro-6-(2-fluorophenyl)-N-(2-ureidoethyl)-4H-pyrazolo[1,5-a][1,4]benzodiazepine-3-carboxamide]: the Emax was greater than 100%.

On to `C#Cc1ccc2c(c1)C(c1ccccc1F)=NCc1cc(C(=O)O)nn1-2` [Example 2, 8-ethynyl-6-(2-fluorophenyl)-4H-pyrazolo[1,5-a][1,4]benzodiazepine-2-carboxylic acid], for which the maximal response (Emax) is greater than 100%.

`O=C(O)c1cc2n(n1)-c1ccc(C3CC3)cc1C(c1ccccc1F)=NC2` [Example 3, 8-cyclopropyl-6-(2-fluorophenyl)-4H-pyrazolo[1,5-a][1,4]benzodiazepine-2-carboxylic acid]: the Emax is greater than 100%.

Turning to `O=C(O)c1cc2n(n1)-c1ccc(Cl)cc1C(c1ccccc1)=NC2` [Example 29, 8-chloro-6-phenyl-4H-benzo[f]pyrazolo[1,5-a][1,4]diazepine-2-carboxylic acid], the Emax is greater than 100%.

Turning to `Cc1c(C(=O)O)nn2c1CN=C(c1ccccc1F)c1cc(Cl)ccc1-2` [Example 19, 12-Chloro-9-(2-fluorophenyl)-5-methyl-2,3,8-triazatricyclo[8.4.0.0^2,6]tetradeca-1(10),3,5,8,11,13-hexaene-4-carboxylic Acid], the Emax was greater than 100%.

As to `C[Si](C)(C)c1ccc2c(c1)C(c1ccccc1F)=NCc1cc(C(=O)O)nn1-2` [Example 8, 6-(2-fluorophenyl)-8-trimethylsilyl-4H-pyrazolo[1,5-a][1,4]benzodiazepine-2-carboxylic acid], the Emax is less than 50%.

Turning to `O=C(O)c1cc2n(n1)-c1ccc(Cl)cc1C(c1ccccc1F)=NC2O` (centres unmarked) [Example 24, 8-chloro-6-(2-fluorophenyl)-4-hydroxy-4H-benzo[f]pyrazolo[1,5-a][1,4]diazepine-2-carboxylic Acid], the maximum response (Emax) was less than 50%.

Turning to `O=C(O)c1nn2c(c1Br)CN=C(c1ccccc1F)c1cc(Cl)ccc1-2` [Example 21, 3-bromo-8-chloro-6-(2-fluorophenyl)-4H-pyrazolo[1,5-a][1,4]benzodiazepine-2-carboxylic Acid], the Emax is greater than 100%.

With `O=C(O)c1nn2c(c1Cl)CN=C(c1ccccc1F)c1cc(Cl)ccc1-2` [Example 22, 3,8-dichloro-6-(2-fluorophenyl)-4H-pyrazolo[1,5-a][1,4]benzodiazepine-2-carboxylic acid], the Emax was in the range of 51 to 100%.

For the molecule `O=C(O)c1cc2n(n1)-c1ccc(Cl)cc1C(c1ccccc1Br)=NC2` [Example 13, 6-(2-bromophenyl)-8-chloro-4H-pyrazolo[1,5-a][1,4]benzodiazepine-2-carboxylic acid], the maximal effect (Emax) was greater than 100%.
